Test results: PubChem BioAssay (NCI)
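Where inhibition never reached the appropriate level, the endpoint shown equals the highest concentration tested. Otherwise, values were interpolated linearly from a five-concentration, 48-hour dose response in 96-well plates. TGI marks complete inhibition of growth.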

Key:
Assay in all cases: growth of human tumour cells (NCI), 48 h
IGROV1 ovarian = tested on: IGROV1 ovarian
HOP-62 NSCLC = tested on: HOP-62 NSCLC
TK-10 renal = tested on: TK-10 renal
MDA-N = tested on: MDA-N
HCC-2998 colon = tested on: HCC-2998 colon
CCRF-CEM leukemia = tested on: CCRF-CEM leukemia
SNB-19 CNS = tested on: SNB-19 CNS
DU-145 prostate = tested on: DU-145 prostate
NCI-H23 lung = tested on: NCI-H23 lung
SF-539 CNS = tested on: SF-539 CNS
HCT-116 colon = tested on: HCT-116 colon
NCI-H460 lung = tested on: NCI-H460 lung
T-47D breast = tested on: T-47D breast
MCF7 breast = tested on: MCF7 breast
NCI/ADR-RES ovarian = tested on: NCI/ADR-RES ovarian

SMILES | TGI (IGROV1 ovarian) [µM] | TGI (HOP-62 NSCLC) [µM] | TGI (TK-10 renal) [µM] | TGI (MDA-N) [µM] | TGI (HCC-2998 colon) [µM] | TGI (CCRF-CEM leukemia) [µM] | TGI (SNB-19 CNS) [µM] | TGI (DU-145 prostate) [µM] | TGI (NCI-H23 lung) [µM] | TGI (SF-539 CNS) [µM] | TGI (HCT-116 colon) [µM] | TGI (NCI-H460 lung) [µM] | TGI (T-47D breast) [µM] | TGI (MCF7 breast) [µM] | TGI (NCI/ADR-RES ovarian) [µM]
O=C1/C(=C/c2ccccc2[N+](=O)[O-])N=C(c2ccccc2)N1c1nc2ccccc2s1 | 33.7 | 72.2 | > 100 | 71.9 | 43.1 | 0.681 | > 100 | 47.6 | 41.4 | 81.3 | 38.5 | > 100 | 76.6 | 90.4 | 39.5
O=[N+]([O-])c1ccc(-n2nc3ccc4c(no[n+]4[O-])c3n2)cc1 | > 100 | > 100 | > 100 | > 100 | > 100 | > 100 | > 100 | > 100 | > 100 | > 100 | > 100 | > 100 | > 100 | > 100 | > 100
CCOC(=O)/C=C(/C(=O)OCC)n1ccc(=O)n(Cc2cnnn2COCCOC(C)=O)c1=O | 39.3 | > 100 | 22.2 | 46.3 | 31.5 | 3.57 | > 31.6 | 42.9 | 33.3 | 25.7 | 45.8 | > 65 | 29.2 | 27.7 | 61.9
COC(=O)/C=C1/OC(c2ccccc2)=C(C)C1=O | 28.4 | 31.4 | 29.1 | 5.71 | 30.2 | > 100 | 30.5 | 33.6 | 43.6 | 32.2 | 15.4 | 39.2 | 42.7 | 16.6 | 65.5
Cc1cc2nc3ccccc3n2c2nc(N)ccc12 | > 100 | > 100 | > 100 | > 100 | > 100 | > 100 | > 100 | > 100 | > 100 | 51.6 | > 100 | 27.5 | > 100 | > 100 | > 100
CC1=C(O)c2ccccc2C(=O)C1=O | > 100 | > 100 | > 100 | > 100 | > 100 | > 100 | > 100 | > 100 | > 100 | > 100 | > 100 | > 100 | > 100 | > 100 | > 100
COc1ccc(N=NC(=O)NC(CC(C)C)C(=O)NCC(=O)O)cc1 (stereo not given) | > 100 | > 100 | > 100 | > 100 | > 87.5 | > 100 | > 100 | > 100 | > 100 | 29.7 | > 100 | > 58.7 | > 84 | > 100 | > 100
COc1ccccc1/C=C/C1=NN(c2cccc(S(=O)(=O)O)c2)C2(C1)C(Cl)C(=O)N2c1nc2ccccc2s1 (stereo not given) | > 100 | > 100 | > 100 | > 100 | > 100 | 33.1 | > 100 | > 100 | > 100 | > 100 | > 100 | > 100 | 44 | > 100 | > 100
CCCSc1ccc2[nH]c(N3C(=O)/C(=C/c4ccc(SC)cc4)N=C3c3ccccc3)cc2c1 | > 50 | > 50 | > 50 | 17.5 | > 50 | > 45.8 | > 50 | > 50 | > 50 | 48.8 | > 50 | > 50 | > 50 | > 50 | > 50
Cc1ccc2nc(C(C)C)c(=O)[nH]c2c1 | > 100 | 30.9 | > 100 | > 100 | > 100 | > 100 | > 100 | > 100 | > 100 | > 100 | > 100 | > 100 | > 100 | > 100 | > 100
C=CCOC(=O)C1=C(C)NC2=N[C@H](CCCCCCCCC)C[C@@H]3CCC1N23 (stereo not given in full) | 49.5 | 79 | 39.4 | 38.4 | 48.4 | > 100 | 42 | 67.8 | 41.8 | 38.1 | 36 | 72.6 | 60.2 | 36.5 | 56
CC(C)=CCC[C@@H](C)C1=C(O)C(Nc2ccccc2Cl)=C(C)C(=O)C1=O | 46.5 | > 64.2 | > 75 | > 75 | > 56.6 | > 21.3 | > 75 | > 75 | 55.1 | 35.7 | > 50.9 | > 75 | 62.7 | > 75 | 11.9
O=Cc1cc(C(=O)OCc2ccccc2)n(S(=O)(=O)c2ccccc2)c1 | 84 | 33.7 | 69.6 | 30.3 | 33.7 | > 100 | > 100 | > 100 | 60.9 | 28.6 | 25.7 | 70.2 | > 100 | 67.2 | 98.6
CCCCc1ccc(Nc2nc(OC)c3ncn(C4CC(O)C(CO)O4)c3n2)cc1 (stereo not given) | 27.2 | 94.7 | 50.1 | 30 | 20.4 | 34.9 | 34.3 | 37.3 | 35.3 | 29 | 29.8 | 32.9 | 43.1 | 29.4 | 65.6
CCCc1cc(COC)c(C#N)c(=O)[nH]1 | > 100 | > 100 | > 100 | > 100 | > 100 | > 100 | > 100 | > 100 | > 100 | > 100 | > 100 | > 100 | > 100 | > 100 | > 100
CCOP(=O)(OCC)C(NC(=O)C(C(F)(F)F)C(F)(F)F)c1ccccc1 (stereo not given) | > 100 | > 100 | > 100 | > 100 | > 100 | > 100 | > 100 | > 100 | > 100 | > 100 | > 100 | > 100 | > 100 | > 100 | > 100
